The source of these data is US3997506A (priority 1974, dated 1976).

In series [1] the test system is human leucocytes. The conditions noted are these: Table 11; for Count of leucocytes after 72 hours: Culture II.
Protocol: Contrary to the previous experiment in which different volumes of a solution of a given concentration have been added, in this experiment the various concentrations were prepared through dilution of a concentrated solution in order to add a same volume of methanol to each culture.
A short description of a further series: in vitro. It is filed as cell-based, human. The conditions noted are these: human, leucocytes, Culture II, read-out: % of dead cells. As for the experimental part: (§1) The cytotoxicity has been investigated on human leucocytes by means of the viability test with Trypan blue.
(§2) a. In a first experimentation cultures of leucocytes of a voluntary […] were prepared and caused to undergo incubation with phytohemagglutinin (PHA) and with different concentrations of colchicine or of its derivative (C1 = 2.5 μg/ml of culture, C3 = 10 μg/ml, C5 = 30 μg/ml, C6 = 50 μg/ml). Leucocytes only containing PHA served as controls.
(§3) After 3, 42, 68 and 72 hours of incubation a sample of each culture was contacted by a drop of Trypan blue and laid on a slide of a microscope. Then took place the counting of the dead cells (those with assumed an […] colour) and of all the cells present on the slide in order to obtain the ratio of the number of dead cells to the total number of cells. The results expressed as a rate in per cent are shown in the accompanying table 8.
(§4) b. After the experimentation which has just been described, the study of cytotoxicity has been continued with two other samples of human leucocytes still by means of the viability test with Trypan blue.
(§5) C1 = 2.5 μg/ml of culture
(§6) C6 = 50 μg/ml of culture;
(§7) and for the carboxy-1-adamantane fraction to:
(§8) C3 = 4.5 μg/ml of culture
(§9) C6 = 22.5 μg/ml of culture.
(§10) Leucocytes only containing phytohemagglutinin and others containing phytohemagglutinin and 50 μl of methanol served as controls.
(§11) The percentage of dead cells was determined after different numbers of hours of incubation.

The test system of series [2] is human leucocytes. Kind of series: in vitro. It is filed as cell-based. The conditions noted are these: Cultures I and II. The method, then: as §1, §2, §3, §4, §5, §6, §7, §8, §9, §10, §11
The mark [3] stands for this setting: carboxy-1-adamantane C3 = 4.5 μg/ml.
Where [4] appears, read: carboxy-1-adamantane C6 = 22.5 μg/ml.

Like-named read-outs stand apart in the source and are kept apart here.

With `O=C(O)C12CC3CC(CC(C3)C1)C2` [carboxy-1-adamantane], the “Count of leucocytes after 72 hours” value in the series on human leucocytes [1] (setting [3]) is listed as 215,000. The “Count of leucocytes after 72 hours” value in the series with human leucocytes [1] (setting [4]) is recorded as 230,000. Moreover, the “number of leucocytes in absence or presence of substance (in words)” value with human leucocytes [1] (very approximative) is listed as “remain substantially the same”. In addition, in “in vitro” (setting [3]), the cytotoxicity at 23 h amounted to 18%, the cytotoxicity at 46 h amounted to 12% and the cytotoxicity at 72 h was determined as 25%. In the series “in vitro” (setting [4]), the cytotoxicity at 23 h is 14%, the cytotoxicity at 46 h amounted to 10% and the cytotoxicity at 72 h was 25%. Moreover, the “cytotoxicity, cultures I and II (in words)” value with human leucocytes [2] was “no effect until 46 hours of incubation”.
